From ChEMBL document CHEMBL4011640, “Identification and Structure-Activity Relationships of Novel Compounds that Potentiate the Activities of Antibiotics in Escherichia coli” (J Med Chem, 2017)
Converted amounts (≈) assume the structure as drawn. The source made the active and inactive calls. The calls are words filed in the database; no cut-off is given here.

Experiments:
Escherichia coli [1] = assay: Binding affinity to Escherichia coli AG100 His-tagged AcrA at 25 uM by SPR assay
Escherichia coli [2] = assay: Antimicrobial activity against Escherichia coli harboring AcrAB-TolC deletion mutant after 24 hrs by two-fold broth microdilution assay; assay type: functional
Escherichia coli [3] = assay: Antimicrobial activity against Escherichia coli BW25113 after 24 hrs by two-fold broth microdilution assay; assay type: functional; settings: BW25113, 24 h
Escherichia coli [4] = assay: Inhibition of AcrA in Escherichia coli assessed as increase in HT dye uptake at 25 uM measured up to 600 secs by fluorescence method
Escherichia coli [5] = assay: Antimicrobial activity against AcrAB-TolC knocked out Escherichia coli GD102 harboring […] pores in the outer membrane after 24 hrs by two-fold broth microdilution assay; assay type: functional; settings: GD102, 24 h
Escherichia coli [6] = assay: Binding affinity to Escherichia coli AG100 His-tagged AcrA at 50 uM by SPR assay
Escherichia coli [7] = assay: Antimicrobial activity against Escherichia coli harboring pores in outer membrane after 24 hrs by two-fold broth microdilution assay; assay type: functional
Escherichia coli BW25113 = assay: Inhibition of AcrA efflux pump in Escherichia coli BW25113 assessed as compound concentration required for potentiation of novobiocin-induced antibacterial activity by 4 fold by checkerboard assay
Escherichia coli [8] = assay: Ratio of MIC for wild type Escherichia coli harboring […] pores in the outer membrane to MIC for AcrAB-TolC knocked out Escherichia coli GD102 harboring […] pores in the outer membrane; assay type: functional
[9] = Ratio of MIC for wild type Escherichia coli BW25113 to MIC for Escherichia coli harboring […] pores in the outer membrane; assay type: functional, cell membranes
Escherichia coli [10] = assay: Inhibition of AcrA in Escherichia coli assessed as HT dye uptake at 25 uM measured up to 600 secs by fluorescence method relative to control
Escherichia coli [11] = assay: Ratio of MIC for wild type Escherichia coli harboring […] pores in the outer membrane to MIC for wild type Escherichia coli harboring […] pores in the outer membrane in presence of erythromycin; assay type: functional
Escherichia coli [12] = assay: Ratio of MIC for wild type Escherichia coli harboring […] pores in the outer membrane to MIC for wild type Escherichia coli harboring […] pores in the outer membrane in presence of novobiocin; assay type: functional
Escherichia coli [13] = assay: Inhibition of AcrA in Escherichia coli assessed as increase in HT dye uptake at 25 uM measured up to 600 secs by fluorescence method relative to control
HEK293 = assay: Cytotoxicity against HEK293 cells assessed as reduction in cell viability after overnight incubation by Cell Titer Glo assay; assay type: cell-based; settings: Homo sapiens
Escherichia coli [14] = assay: Disruption of transmembrane potential in Escherichia coli live cells harboring pores in outer membrane at 10 uM by DiSC3(5) probe-based fluorescence assay; assay type: functional

Question: For `O=C(Nc1ccc(NC(=O)c2ccc(C3=NCCN3)cc2)cc1)c1ccc(C2=NCCN2)cc1`, which Activity (Escherichia coli [1]) is on record?
Answer: Active

Question: What about the MIC (Escherichia coli [2]) of the same molecule?
Answer: 25 µM (≈ 11.3 µg/mL)

Question: What about the MIC (Escherichia coli [3]) of the same molecule?
Answer: 50 µM (≈ 22.6 µg/mL)

Question: And the Activity (Escherichia coli [4])?
Answer: inactive

Question: What about the MIC (Escherichia coli [5]) of the same molecule?
Answer: 12.5 µM (≈ 5.66 µg/mL)

Question: And the Activity (Escherichia coli [6])?
Answer: Active

Question: What about the MIC (Escherichia coli [7]) of the same molecule?
Answer: 50 µM (≈ 22.6 µg/mL)

Question: And the Activity (Escherichia coli BW25113)?
Answer: 12.5 µM

Question: For `O=C(Nc1ccc(C2=NCCN2)cc1)c1ccc(C(=O)Nc2ccc(C3=NCCN3)cc2)cc1`, which Activity (Escherichia coli BW25113) is on record?
Answer: 50 µM

Question: For `O=C(Nc1ccc(C2=NCCN2)cc1)c1cccc(C(=O)Nc2ccc(C3=NCCN3)cc2)c1`, which Activity (Escherichia coli BW25113) is on record?
Answer: 200 µM

Question: Which Activity (Escherichia coli BW25113) does the source give for `O=C(Nc1ccc(-c2ncc[nH]2)cc1)c1ccc(C(=O)Nc2ccc(-c3ncc[nH]3)cc2)c(Cl)c1` here?
Answer: > 400 µM

Question: Which Activity (Escherichia coli BW25113) does the source give for `N#Cc1cccc(NC(=O)c2ccc(C(=O)Nc3cccc(C#N)c3)c(Cl)c2)c1` here?
Answer: > 400 µM

Question: Which Activity (Escherichia coli BW25113) does the source give for `NCc1ccc(NC(=O)c2ccc(C(=O)Nc3ccc(CN)cc3)cc2)cc1` here?
Answer: 50 µM

Question: With `COc1ccc(/C=C/C(=O)Nc2ccc(C3=NCCN3)cc2)cc1` as the molecule, how does the Activity (Escherichia coli BW25113) read?
Answer: 100 µM

Question: With `O=C(Nc1ccc(C2=NCCN2)cc1)c1ccc(Cl)cc1` as the molecule, how does the Activity (Escherichia coli BW25113) read?
Answer: 200 µM

Question: For `O=C(/C=C/c1ccccc1C(F)(F)F)Nc1ccc(C2=NCCN2)cc1`, which Activity (Escherichia coli BW25113) is on record?
Answer: 50 µM

Question: Which results are given for `O=C(Nc1ccc(C2=NCCN2)cc1)c1ccc2cc(Br)ccc2c1`?
Answer: Activity (Escherichia coli [1]): Active; Ratio (Escherichia coli [8]): 16; MIC (Escherichia coli [2]): 25 µM (≈ 9.86 µg/mL); MIC (Escherichia coli [3]): > 400 µM; Activity (Escherichia coli [4]): Active; Ratio [9]: 4; fold change (FC) (Escherichia coli [10]): 16; Ratio (Escherichia coli [11]): 16; MIC (Escherichia coli [5]): 12.5 µM (≈ 4.93 µg/mL); Ratio (Escherichia coli [12]): 16; fold change (FC) (Escherichia coli [13]): 1.6; MIC (Escherichia coli [7]): 200 µM (≈ 78.9 µg/mL); Activity (Escherichia coli BW25113): 25 µM

Question: With `Cn1cnnc1-c1ccc(NC(=O)c2ccc(C(=O)Nc3ccc(-c4nncn4C)cc3)c(Cl)c2)cc1` as the molecule, how does the Activity (Escherichia coli BW25113) read?
Answer: > 400 µM

Question: With `O=C(/C=C/c1ccccc1Cl)Nc1ccc(C2=NCCN2)cc1` as the molecule, how does the IC50 (HEK293) read?
Answer: 10.5 µM

Question: What about the Activity (Escherichia coli [1]) of the same molecule?
Answer: Active

Question: And the Ratio (Escherichia coli [8])?
Answer: 4

Question: What about the MIC (Escherichia coli [2]) of the same molecule?
Answer: 200 µM (≈ 65.2 µg/mL)

Question: What about the MIC (Escherichia coli [3]) of the same molecule?
Answer: > 200 µM

Question: What about the Activity (Escherichia coli [4]) of the same molecule?
Answer: Active

Question: And the Ratio [9]?
Answer: 1

Question: What about the fold change (FC) (Escherichia coli [10]) of the same molecule?
Answer: 9.7

Question: What about the Ratio (Escherichia coli [11]) of the same molecule?
Answer: 8

Question: And the MIC (Escherichia coli [5])?
Answer: 100 µM (≈ 32.6 µg/mL)

Question: And the Ratio (Escherichia coli [12])?
Answer: 32

Question: And the Activity (Escherichia coli [14])?
Answer: inactive

Question: And the MIC (Escherichia coli [7])?
Answer: 400 µM (≈ 130 µg/mL)

Question: And the Activity (Escherichia coli BW25113)?
Answer: 25 µM

Question: With `CC(C)[C@@H]1NC(=O)[C@H](C)OC(=O)[C@@H](C(C)C)NC(=O)[C@@H](C(C)C)OC(=O)[C@H](C(C)C)NC(=O)[C@H](C)OC(=O)[C@@H](C(C)C)NC(=O)[C@@H](C(C)C)OC(=O)[C@H](C(C)C)NC(=O)[C@H](C)OC(=O)[C@@H](C(C)C)NC(=O)[C@@H](C(C)C)OC1=O` as the molecule, how does the Activity (Escherichia coli [14]; TDE = time-dependent effect) read?
Answer: Tde

Question: Which Activity (Escherichia coli BW25113) does the source give for `O=C(Nc1ccc(C2=NCCN2)cc1)c1ccc(C(=O)Nc2ccc(C3=NCCN3)cc2)c(F)c1` here?
Answer: 100 µM

Question: For `O=C(/C=C/c1cccc(Cl)c1)Nc1ccc(C2=NCCN2)cc1`, which Activity (Escherichia coli BW25113) is on record?
Answer: 50 µM

Question: With `O=C(Nc1ccc(C2=NCCN2)cc1)c1ccc(C(=O)Nc2ccc(C3=NCCN3)cc2)c(Br)c1` as the molecule, how does the Activity (Escherichia coli BW25113) read?
Answer: 50 µM

Question: For `O=C(CCC(=O)Nc1ccc(C2=NCCN2)cc1)Nc1ccc(C2=NCCN2)cc1`, which Activity (Escherichia coli BW25113) is on record?
Answer: > 400 µM

Question: Which results are given for `O=C(/C=C/c1ccccc1Br)Nc1ccc(C2=NCCN2)cc1`?
Answer: Activity (Escherichia coli [1]): Active; Ratio (Escherichia coli [8]): 8; MIC (Escherichia coli [2]): 200 µM (≈ 74.1 µg/mL); MIC (Escherichia coli [3]): > 400 µM; Activity (Escherichia coli [4]): Active; Ratio [9]: 1; fold change (FC) (Escherichia coli [10]): 11.6; Ratio (Escherichia coli [11]): 32; MIC (Escherichia coli [5]): 100 µM (≈ 37 µg/mL); Ratio (Escherichia coli [12]): 32; MIC (Escherichia coli [7]): > 400 µM; Activity (Escherichia coli BW25113): 50 µM
